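Growth conditions: 96-well plates. Treatment: test compound, 48 hours, 5 concentrations. Analysis: linear interpolation between bracketing concentrations; unreached endpoints set to highest concentration. GI50 marks 50% less growth. TGI denotes the concentration required for complete inhibition of growth.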
Assays:
Assay in all cases: inhibition of tumour cell growth, NCI panel, 48 h
BT-549 breast = test system: BT-549 breast
CAKI-1 renal = test system: CAKI-1 renal
EKVX NSCLC = test system: EKVX NSCLC
KM12 colon = test system: KM12 colon
NCI-H522 lung = test system: NCI-H522 lung
RXF 393 renal = test system: RXF 393 renal
SF-539 CNS = test system: SF-539 CNS
SK-OV-3 ovarian = test system: SK-OV-3 ovarian
SNB-75 CNS = test system: SNB-75 CNS
SW-620 colon = test system: SW-620 colon

SMILES	TGI (BT-549 breast) [µM]	TGI (CAKI-1 renal) [µM]	TGI (EKVX NSCLC) [µM]	TGI (KM12 colon) [µM]	TGI (NCI-H522 lung) [µM]	TGI (RXF 393 renal) [µM]	TGI (SF-539 CNS) [µM]	TGI (SK-OV-3 ovarian) [µM]	TGI (SNB-75 CNS) [µM]	TGI (SW-620 colon) [µM]	GI50 (BT-549 breast) [µM]	GI50 (CAKI-1 renal) [µM]	GI50 (EKVX NSCLC) [µM]	GI50 (KM12 colon) [µM]	GI50 (NCI-H522 lung) [µM]	GI50 (RXF 393 renal) [µM]	GI50 (SF-539 CNS) [µM]	GI50 (SK-OV-3 ovarian) [µM]	GI50 (SNB-75 CNS) [µM]	GI50 (SW-620 colon) [µM]
C[C@]12CC[C@H](O)CC1=CC[C@@H]1C2CC[C@]2(C)c3nn(-c4ccc(F)cc4)nc3CC12 (some centres not stated)	> 100	> 100	> 100	> 100	> 100	> 100	> 100	> 100	74.4	> 100										
Fc1ccc(Oc2nccc(-c3c(-c4ccc(F)cc4)ncn3C3CCNCC3)n2)cc1	> 25	> 25	> 25	> 25	> 25	> 25	> 25	> 25	> 25	> 25	> 25	20.5	> 25	> 25	> 25	> 25	> 25	> 23.9	> 25	> 25
CCC1=C[C@@H]2CN(C1)Cc1c([nH]c3ccccc13)[C@@](C(=O)OC)(c1cc3c(cc1OC)N(C=O)[C@H]1[C@@](O)(C(=O)OC)[C@H](OC(C)=O)[C@]4(CC)[C@@H]5C[C@@H]5CN5CC[C@]31[C@@H]54)C2	0.211	> 6.25			0.01	> 6.25	0.0201		> 5.74	> 6.25	0.00166	0.253		< 0.000625	< 0.000625	0.00155	0.000646	< 0.000625	0.000766	0.000656
CN(C)NC1=NS(=O)(=O)c2cc3c(cc2S1)N(N(C)C)C(=O)c1cc2c(cc1N(N(C)C)C3=O)SC(NN(C)C)=NS2(=O)=O	> 10	> 10	> 10	> 10	> 10	> 10	> 10	> 10	> 10	> 10										
COc1c(C)c2c(c(O)c1C/C=C(\C)CCC(=O)OCCN1CCOCC1)C(=O)OC2	> 100	> 100	> 100	> 100	> 100	> 100	> 100	> 100	> 24.9	> 100	0.426	0.299		0.317	0.3	0.774	0.375	0.462	0.475	0.142
O=C1C(=Cc2ccco2)C(=O)C2CCCCC12 (configuration not stated)	> 100	> 100	> 100	> 100	> 100	> 100	> 100	> 100	> 100	> 100										
COc1ccc(C2=NN(C(=O)COc3ccc(Cl)cc3)C(O)(c3cc(F)c(Cl)cc3Cl)C2)cc1OC (configuration not stated)	10.7	3.6	22.8	16.2	2.37	1.48	3.55	30.6	7.3	2.58	2.75	1.68	10.5	4.88		0.474	1.81	16.1	2.69	0.869
OC(C1=C/C(=C\c2ccncc2)c2ccccc21)c1ccncc1 (configuration not stated)	57.9	> 49.5	41.5	35.1	31.1	30.6	32	31.8	24	> 94.3										
CCN1C(=O)N(CC)C2C1NN=c1s/c(=C3\C(=O)N(CC(C)C)c4ccccc43)c(=O)n12 (configuration not stated)	> 100	> 100	> 100	> 100		2.45	1.66	39.8	3.82	> 100	2.45	0.522	1.56	0.418	0.4	0.335	0.327	0.493	0.268	0.444
Cc1cccc(C)c1NC(=O)/C(Cl)=C(/Cl)C(=O)O	31.5	15.1	35.7	23	8.92	33.9	53.9	45.5	43.4	14.9										
CCN(CC)CCOc1ccc(Nc2ncc3cc(-c4ccc(O)cc4)c(=O)n(C)c3n2)cc1	16.5	16.1	37.5	17.1	27.1	1.67	11.6	24.8	13.7	4.01	3.33	0.0379	15.1	2.44	2.69	0.147	0.629	0.0791	0.0406	2.01
C/C=C(\C)C(=O)N[C@H]1[C@@H](OC(C)=O)C[C@]2(C)C3CC[C@@]4(C)C(CC[C@@H]4C(C)N(C)C)C3CCC2[C@H]1O (some centres not stated)	21.6	14	31.4	15.5	15.3	14.4	4.97	22.5	20.8	9.44	4.81	3.2	5.63	4.35	4.99	1.71	1.87	7.95	5.86	2.63
COC1/C=C\C=C(/C)C(=O)Nc2cc3nc4ccc(Br)cc4oc-3c(c2=O)CC(C)CC(OC)C(O)C(C)/C=C(\C)C1OC(N)=O (configuration not stated)	22.6	16.3	25.9	13.4	0.142	8.61	11.3	15.3	23.8	2.75	10.1				0.00141		0.00745			0.000996
Cn1ccc2c(NCCN)c3c(c(NCCN)c21)C(=O)c1ccccc1C3=O	23.7	9.48	5.3	5.71	4.92	3.67	1.55	42.4	44.5	2.59	7.62	2.51	1.34	0.551	0.498	1.5	0.291	20.3	18.9	0.514

— PubChem BioAssay (NCI)
